In brackets after ≈: the same amount, converted by molar mass. Activity calls are given as the source filed them. The rule behind the calls is not given here.
How the values were obtained:
Androgen receptor = target: T1, Androgen receptor (Homo sapiens, UniProt P10275); experiment: Antagonist activity at full length human androgen receptor expressed in mammalian expression system measured after 22 to 24 hrs by luciferase reporter gene assay
T1 sequence (P10275 whole entry): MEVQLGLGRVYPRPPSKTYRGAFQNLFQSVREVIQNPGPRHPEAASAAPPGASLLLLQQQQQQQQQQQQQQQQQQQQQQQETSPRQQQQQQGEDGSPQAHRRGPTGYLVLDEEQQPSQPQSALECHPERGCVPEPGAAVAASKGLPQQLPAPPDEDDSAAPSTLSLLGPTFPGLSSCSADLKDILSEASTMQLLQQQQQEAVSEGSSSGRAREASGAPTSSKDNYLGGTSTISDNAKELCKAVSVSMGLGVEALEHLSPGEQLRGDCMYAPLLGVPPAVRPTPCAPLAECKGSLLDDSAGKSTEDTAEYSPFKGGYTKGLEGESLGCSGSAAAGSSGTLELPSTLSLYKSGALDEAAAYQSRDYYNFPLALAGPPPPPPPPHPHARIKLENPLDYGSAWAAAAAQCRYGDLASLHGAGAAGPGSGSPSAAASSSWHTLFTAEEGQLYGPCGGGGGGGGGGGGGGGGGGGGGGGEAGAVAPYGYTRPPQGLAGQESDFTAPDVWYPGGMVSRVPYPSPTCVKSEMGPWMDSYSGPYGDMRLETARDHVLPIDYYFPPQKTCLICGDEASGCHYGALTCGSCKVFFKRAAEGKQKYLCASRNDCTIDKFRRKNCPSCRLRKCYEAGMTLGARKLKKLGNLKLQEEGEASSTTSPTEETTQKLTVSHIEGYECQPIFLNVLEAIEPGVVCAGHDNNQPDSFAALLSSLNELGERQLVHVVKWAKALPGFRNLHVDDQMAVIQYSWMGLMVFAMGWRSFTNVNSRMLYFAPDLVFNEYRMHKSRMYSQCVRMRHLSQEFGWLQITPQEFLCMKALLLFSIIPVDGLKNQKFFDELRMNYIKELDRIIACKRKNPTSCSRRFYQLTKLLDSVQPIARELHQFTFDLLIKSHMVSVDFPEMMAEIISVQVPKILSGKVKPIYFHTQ

[1] = target: T2, Sigma non-opioid intracellular receptor 1 (Homo sapiens, UniProt Q99720); experiment: Displacement of [125I]-IPAG from sigma1 in human MDA-MB-468 cell membranes
T2 sequence (Q99720 whole entry): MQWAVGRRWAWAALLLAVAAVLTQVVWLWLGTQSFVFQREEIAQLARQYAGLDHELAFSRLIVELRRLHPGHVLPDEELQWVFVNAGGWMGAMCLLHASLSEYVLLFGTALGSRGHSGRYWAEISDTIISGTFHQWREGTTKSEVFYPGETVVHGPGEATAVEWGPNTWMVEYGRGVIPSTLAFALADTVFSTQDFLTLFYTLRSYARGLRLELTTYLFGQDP

[2] = Half life in Swiss mouse plasma at 30 mg/kg, po
[3] = AUC (0 to infinity) in Swiss mouse plasma at 10 mg/kg, po; format: ADME, organism-based; parameters: dose 10 mg/kg, time infinity, route oral
[4] = Solubility of compound in PBS buffer at pH 7.4; format: physicochemical
MDA-MB-468 = experiment: Antiproliferative activity against human MDA-MB-468 cells at 3 to 20 uM by CellTiter-Glo assay; format: functional, cell-based
[5] = Stability in human liver microsomes; format: ADME, microsome; conditions: read-out: Stability
in vivo [6] = conditions: Swiss, mouse, plasma, po, 30 mg/kg
[7] = Half life in Swiss mouse plasma at 10 mg/kg, po
in vivo [8] = conditions: Swiss, mouse, plasma, po, 30 mg/kg; remark: listed apart in the source
in vivo [9] = conditions: Swiss, mouse, plasma, po, 10 mg/kg
[10] = Stability in mouse liver microsomes; format: ADME, microsome; conditions: read-out: Stability
[11] = Stability in human plasma; format: ADME, cell-free; conditions: read-out: Stability
Plasma [12] = conditions: mouse, in vivo, ip, 10 mg/kg
in vivo [13] = conditions: Swiss, mouse, plasma, po, 30 mg/kg; remark: listed apart in the source
Plasma [14] = experiment: Protein binding in human plasma; format: ADME, cell-free
[15] = AUC (0 to infinity) in Swiss mouse plasma at 10 mg/kg, ip; format: ADME, organism-based; parameters: dose 10 mg/kg, route intraperitoneal, time infinity
in vivo [16] = conditions: Swiss, mouse, plasma, po, 10 mg/kg; remark: listed apart in the source
in vivo [17] = conditions: Swiss, mouse, plasma, po, 10 mg/kg; remark: listed apart in the source
[18] = AUC (0 to infinity) in Swiss mouse plasma at 30 mg/kg, po; format: ADME, organism-based; parameters: dose 30 mg/kg, time infinity, route oral
[19] = AUC (0 to infinity) in Swiss mouse plasma at 2 mg/kg, iv; format: ADME, organism-based; parameters: dose 2 mg/kg, time infinity, route intravenous
Brain = conditions: mouse, in vivo, ip, 10 mg/kg
[20] = Ratio of drug level in Swiss mouse brain to plasma at 10 mg/kg, ip
[21] = Clearance in Swiss mouse plasma at 2 mg/kg, iv
[22] = Stability in mouse plasma; format: ADME, cell-free; conditions: read-out: Stability
[23] = Volume of distribution in Swiss mouse plasma at 2 mg/kg, iv; format: ADME, organism-based
[24] = AUC (0 to infinity) in Swiss mouse brain at 10 mg/kg, ip; format: ADME, organism-based; parameters: dose 10 mg/kg, time infinity, route intraperitoneal
Plasma [25] = experiment: Protein binding in mouse plasma; format: ADME, cell-free
[26] = target: T2, Sigma non-opioid intracellular receptor 1; experiment: Displacement of [3H]-(+)-pentazocine from sigma1 in human MDA-MB-468 cell membranes
[27] = target: T3, Voltage-gated inwardly rectifying potassium channel KCNH2 (Homo sapiens, UniProt Q12809); experiment: Inhibition of human ERG
T3 sequence (Q12809 whole entry): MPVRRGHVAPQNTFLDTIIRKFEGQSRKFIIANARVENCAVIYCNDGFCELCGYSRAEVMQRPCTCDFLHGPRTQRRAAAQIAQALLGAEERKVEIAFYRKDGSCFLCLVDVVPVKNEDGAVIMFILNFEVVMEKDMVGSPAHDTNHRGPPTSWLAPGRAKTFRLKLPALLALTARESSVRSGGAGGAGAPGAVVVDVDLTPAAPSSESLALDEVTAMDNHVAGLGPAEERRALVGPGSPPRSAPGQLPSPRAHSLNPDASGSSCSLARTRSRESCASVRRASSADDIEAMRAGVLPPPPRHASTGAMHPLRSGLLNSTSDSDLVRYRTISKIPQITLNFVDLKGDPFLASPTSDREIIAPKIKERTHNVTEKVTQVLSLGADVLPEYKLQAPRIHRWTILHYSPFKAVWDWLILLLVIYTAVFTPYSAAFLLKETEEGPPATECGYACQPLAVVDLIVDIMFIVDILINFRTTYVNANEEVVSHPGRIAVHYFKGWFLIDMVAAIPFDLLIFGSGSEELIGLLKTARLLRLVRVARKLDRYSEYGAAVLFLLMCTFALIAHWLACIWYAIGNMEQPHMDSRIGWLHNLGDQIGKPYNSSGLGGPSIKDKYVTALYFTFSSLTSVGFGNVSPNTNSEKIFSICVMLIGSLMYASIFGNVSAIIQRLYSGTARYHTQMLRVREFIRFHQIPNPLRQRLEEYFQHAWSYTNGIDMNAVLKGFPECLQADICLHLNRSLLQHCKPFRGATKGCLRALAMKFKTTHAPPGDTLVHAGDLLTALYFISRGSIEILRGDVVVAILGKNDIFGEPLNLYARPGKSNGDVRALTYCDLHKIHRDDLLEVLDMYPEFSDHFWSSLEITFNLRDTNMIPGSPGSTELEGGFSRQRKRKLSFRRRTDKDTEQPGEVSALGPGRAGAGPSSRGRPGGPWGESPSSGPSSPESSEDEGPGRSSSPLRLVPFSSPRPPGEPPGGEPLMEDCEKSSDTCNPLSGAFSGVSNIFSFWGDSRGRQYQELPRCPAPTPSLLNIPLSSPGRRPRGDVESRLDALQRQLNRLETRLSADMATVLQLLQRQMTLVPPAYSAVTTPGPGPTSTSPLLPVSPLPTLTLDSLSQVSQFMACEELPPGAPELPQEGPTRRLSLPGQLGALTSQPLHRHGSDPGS

[28] = target: T3, Voltage-gated inwardly rectifying potassium channel KCNH2; experiment: Inhibition of human ERG expressed in CHOK1 cells by Qpatch clamp method

Row | SMILES | EC50 (Androgen receptor) [nM] | solubility [4] [µg/mL] | half-life [5] [h] | half-life [10] [h] | half-life [11] [h] | PPB (Plasma [14]) [%] | half-life [22] [h] | PPB (Plasma [25]) [%] | Ki [26] [nM] | IC50 [27] [nM] | other results
1 | CC(=O)O[C@H]1CC[C@@]2(C)C(=CC[C@@H]3[C@@H]2CC[C@]2(C)C(c4cccnc4)=CC[C@@H]32)C1 [ABIRATERONE ACETATE] | 17000 to 17100 |  |  |  |  |  |  |  |  |  | 
2 | N=C(Nc1ccc(I)cc1)Nc1ccc(I)cc1 |  |  |  |  |  |  |  |  |  |  | Ki [1]: 3 nM
3 | N=C(NCCCOc1ccc(F)cc1)Nc1ccc(Cl)cc1 | 12700 | 4580 (≈ 14.2 mM) | > 1.5 | 0.413 | > 6 | 93.4 | > 6 | 88.8 |  |  | half-life [2]: > 3 h; AUC(0-inf) [3]: 141 ng·h/mL; Activity (MDA-MB-468): Active; Tmax (in vivo [6]): 1 h; half-life [7]: > 3 h; Cmax (in vivo [8]): 674 nM; Cmax (in vivo [9]): 304 nM; Cmax (Plasma [12]): 438 nM; AUC(0-t) (in vivo [13]): 414 ng·h/mL; AUC(0-inf) [15]: 166 ng·h/mL; Tmax (in vivo [16]): 0.25 h; AUC(0-t) (in vivo [17]): 119 ng·h/mL; AUC(0-inf) [18]: 480 ng·h/mL; AUC(0-inf) [19]: 57 to 71 ng·h/mL; Cmax (Brain): 2150 nM; Kp [20]: 5; clearance [21]: 469 to 586 mL/min/kg; Vd [23]: 57.6 to 91 L/kg; AUC(0-inf) [24]: 856 ng·h/mL
4 | N=C(NCCCOc1ccc(F)cc1)Nc1ccc(C(F)(F)F)cc1 |  |  |  |  |  |  |  |  | 45.3 |  | 
5 | COc1ccc(NC(=N)NCCCOc2ccc(F)cc2)cc1 | 28100 | 8450 (≈ 26.6 mM) | 0.387 | 0.117 | > 6 | 75.1 | > 6 | 82.1 | 13.4 | 417 | 
6 | N=C(NCCCOc1ccc(F)cc1)Nc1ccc(I)cc1 |  | 5370 (≈ 13 mM) | > 1.5 | 0.41 | > 6 | 96.6 | > 6 | 97.9 | 46.1 | 109 | Activity (MDA-MB-468): Active
7 | NC(=NC12CC3CC(CC(C3)C1)C2)Nc1ccc(I)cc1 | 9500 to 9750 |  |  |  |  |  |  |  |  | 491 | IC50 [28]: 2600 nM
8 | N=C(NCCCOc1ccc(F)cc1)NCCCOc1ccc(F)cc1 |  |  |  |  |  |  |  |  |  |  | Ki [1]: > 1000 nM

Source: ChEMBL document CHEMBL4017455, “Novel small molecule guanidine Sigma1 inhibitors for advanced prostate cancer” (Bioorg Med Chem Lett, 2017)
